Laboratory results taken from the OligoGym collection.
HELM strings list units from the 5' end as sugar, base in round brackets, then linkage (d deoxyribose, r ribose, m 2'-O-methyl, p phosphodiester). Strings are as the collection lists them; they lack the last nucleoside at the 3' end of the tested compound. [moe] = 2'-O-(2-methoxyethyl) (MOE); [sp] = phosphorothioate linkage; [m5C] = 5-methylcytosine

Biological target: PRNP
Assay: mouse, dose not given
Conditions: ASO

Going from “RNA1{[moe]([m5C])[sp].[moe](A)p.[moe](A)p.[moe](G)p.[moe]([m5C])[sp].d(A)[sp].d(G)[sp].d(T)[sp].d(T)[sp].d([m5C])[sp].d(T)[sp].d(T)[sp].d(T)[sp].d(T)[sp].d([m5C])[sp].[moe](T)p.[moe](T)p.[moe](T)[sp].[moe](G)}$$$$ (last 3' nucleoside missing)” to “RNA1{[moe]([m5C])[sp].[moe](A)p.[moe](A)p.[moe](T)p.[moe](T)[sp].d(G)[sp].d(T)[sp].d(T)[sp].d(T)[sp].d(T)[sp].d(T)[sp].d([m5C])[sp].d(T)[sp].d([m5C])[sp].d(T)[sp].[moe]([m5C])p.[moe](T)p.[moe]([m5C])[sp].[moe](T)}$$$$ (last 3' nucleoside missing)”, the 3 h FOB score falls from 2.25 score 0-7 to 0 score 0-7.

Going from “RNA1{[moe]([m5C])[sp].[moe](A)p.[moe](G)p.[moe](G)p.[moe](G)[sp].d(A)[sp].d(A)[sp].d(T)[sp].d(A)[sp].d(A)[sp].d(T)[sp].d(T)[sp].d(T)[sp].d(T)[sp].d(A)[sp].[moe]([m5C])p.[moe](T)p.[moe](T)[sp].[moe](T)}$$$$ (last 3' nucleoside missing)” to “RNA1{[moe]([m5C])[sp].[moe](A)p.[moe](G)p.[moe](T)p.[moe](G)[sp].d(T)[sp].d(T)[sp].d([m5C])[sp].d([m5C])[sp].d(A)[sp].d(T)[sp].d([m5C])[sp].d([m5C])[sp].d(T)[sp].d([m5C])[sp].[moe]([m5C])p.[moe](A)p.[moe](G)[sp].[moe](G)}$$$$ (last 3' nucleoside missing)”, the 3 h FOB score rises from 0 score 0-7 to 1 score 0-7.

Compared with “RNA1{[moe]([m5C])[sp].[moe](A)p.[moe](G)p.[moe](T)p.[moe](T)[sp].d(T)[sp].d(T)[sp].d(T)[sp].d([m5C])[sp].d([m5C])[sp].d([m5C])[sp].d([m5C])[sp].d(A)[sp].[moe]([m5C])p.[moe](A)p.[moe](T)[sp].[moe](A)}$$$$ (last 3' nucleoside missing)”, “RNA1{[moe]([m5C])[sp].[moe](A)p.[moe](T)p.[moe](T)p.[moe](T)[sp].d(G)[sp].d(A)[sp].d(T)[sp].d(T)[sp].d(T)[sp].d([m5C])[sp].d(A)[sp].d(A)[sp].d(G)[sp].d(T)[sp].[moe]([m5C])p.[moe]([m5C])p.[moe]([m5C])[sp].[moe](A)}$$$$ (last 3' nucleoside missing)” is higher in 3 h FOB score: 0 score 0-7 for the first, 3 score 0-7 for the second.

First: RNA1{[moe]([m5C])[sp].[moe](A)p.[moe]([m5C])p.[moe](A)p.[moe]([m5C])p.d(T)[sp].d(G)[sp].d(A)[sp].d([m5C])[sp].d([m5C])[sp].d(A)[sp].d(T)[sp].d(T)[sp].d(T)[sp].[moe](T)p.[moe](T)p.[moe](T)[sp].[moe](A)}$$$$ (last 3' nucleoside missing)
Second: RNA1{[moe]([m5C])[sp].[moe](G)[sp].[moe](T)p.[moe]([m5C])p.[moe]([m5C])p.[moe](A)p.[moe](T)p.d(T)[sp].d(T)[sp].d(T)[sp].d([m5C])[sp].d(T)[sp].d(G)[sp].d(T)[sp].d(G)[sp].d([m5C])[sp].d(T)[sp].[moe](T)p.[moe](T)}$$$$ (last 3' nucleoside missing)
The 3 h FOB score of the first is lower: 0 score 0-7 for the first, 5.5 score 0-7 for the second.

First: RNA1{[moe]([m5C])[sp].[moe](G)p.[moe](G)p.[moe](G)p.[moe](T)[sp].d(T)[sp].d(T)[sp].d(T)[sp].d([m5C])[sp].d(T)[sp].d(T)[sp].d(A)[sp].d(A)[sp].d(A)[sp].d(A)[sp].[moe](T)p.[moe](G)p.[moe](G)[sp].[moe](A)}$$$$ (last 3' nucleoside missing)
Second: RNA1{[moe]([m5C])[sp].[moe](G)p.[moe](T)p.[moe](T)p.[moe](G)[sp].d(T)[sp].d(T)[sp].d(G)[sp].d(A)[sp].d(T)[sp].d(T)[sp].d(T)[sp].d(T)[sp].d(T)[sp].d([m5C])[sp].[moe]([m5C])p.[moe](A)p.[moe](G)[sp].[moe](A)}$$$$ (last 3' nucleoside missing)
The 3 h FOB score of the first is higher: 2 score 0-7 for the first, 1.75 score 0-7 for the second.
